Data set [1] has as its system MCF7 (human breast adenocarcinoma) cell lines. Briefly: MTT cytotoxicity assay, MCF7. The data set is classed as cell-based. The settings on record: MCF7 cells, triplicates. How it is done: (§1) The cytotoxicity of the synthesized compounds was evaluated by MTT assay, as previously described. Two cancer cell lines, MCF7 (human breast adenocarcinoma) and A2780 (human ovary adenocarcinoma), were used in this study, which were obtained from the ATCC (Rockville, MD, USA). They were sub-cultured in RPMI-1640 media (supplemented with 10% FBS and 1% antibiotics) at 37 °C and 5% CO2. Additionally, compounds were prepared at the same medium to obtain serial dilutions (50, 25, 19,1 and 0.1 µM). The two cell lines were separately cultured in 96-well plates (3 × 10^3/well) and incubated at 37 °C overnight. The following day, before treating the cells with the compounds, each well of the T0 plate was treated with 50 μL MTT solution (2 mg/mL in phosphate buffered saline) and then incubated for 2–4 h. The media were aspirated, and the formazan crystals were solubilized by adding 150 µL DMSO. Absorbance was read on a multi-plate reader (BioRad) at […]. Optical density of the purple formazan A550 was proportional to the number of viable cells. […] The data were obtained from triplicates and analyzed using statistical software.
A general note: Formazan colour is commonly taken as a measure of viable cells.

Data set [2] relates to A2780 (human ovary adenocarcinoma) cell lines. Briefly: MTT cytotoxicity assay, A2780. The class given is cell-based. The settings on record: A2780 cells; for IC50: Homo sapiens, A2780, MTT assay, triplicates; for inhibitory activity against A2780 cell lines (in words): MTT assay. How it is done: as §1
Data set [3] has as its target T1, CDK2/CyclinA2 (Homo sapiens, UniProt P24941).
T1 construct: purchased #79599
Briefly: In vitro CDK2 inhibitory activity (CDK2 Assay Kit, Kinase-Glo MAX luminescence). The data set is classed as biochemical. The settings on record: triplicate measurements, read-out: CDK2 Protein Kinase (IC50 in µM). How it is done:
The CDK2 Assay Kit is designed to measure CDK2/CyclinA2 activity for screening and profiling applications, using Kinase-Glo® MAX as a detection reagent. The CDK2 Assay Kit comes in a convenient 96-well format, with enough purified recombinant CDK2/CyclinA2 enzyme, CDK substrate peptide, ATP and kinase assay buffer for 100 enzyme reactions. […] The CDK2/CyclinA2 activity at a single dose concentration of 10μM was performed, where the Kinase-Glo MAX luminescence kinase assay kit (Promega#V6071) was used. The compounds were diluted in 10% DMSO and 5 μL of the dilution was added to a 50 μL reaction so that the final concentration of DMSO was 1% in all of the reactions. All of the enzymatic reactions were conducted at 30 °C for 40 min. The 50 μL reaction mixture contained 40 mM Tris, pH 7.4, 10 mM MgCl2, 0.1 mg/mL BSA, 1 mM DTT, […], Kinase substrate and the enzyme (CDK2/CyclinA2). After the enzymatic reaction, 50 μL of Kinase-Glo® MAX Luminescence kinase assay solution was added to each reaction and the plates were incubated for 5 min at room temperature. Luminescence signal was measured using a Bio Tek Synergy 2 microplate reader.
On the technique in general: In Kinase-Glo more light means more ATP remaining.

Each structure is given as a SMILES string. Where “and” joins values, the source holds several entries; their conditions need not be identical. Equal entries are not always repeated.

A word on the melting point: it is the temperature, or range, at which the solid turns liquid. The IC50 is the concentration that inhibits the measured activity by half. Compound `Cc1cccc(C=NN=C2C(=O)Nc3ccccc32)c1` [Compound 4b, 3-((3-Methylbenzylidene)hydrazono)indolin-2-one] came in with a melting point of 183 to 184 °C. Besides, in data set [1], inhibition was half-maximal at 14.7 µM (IC50). The compound further came in with an IC50 in data set [2] of more than 50 µM.
With `O=C1Nc2ccccc2C1=NN=Cc1c(Cl)cccc1Cl` [Compound 4j, 3-((2,6-Dichlorobenzylidene)hydrazono)indolin-2-one], the melting point is 286 to 287 °C. Also, the IC50 in data set [3] was 0.245 µM and 0.246 µM. For the same compound, in data set [1], the IC50 came out at 1.51 ± 0.09 µM. In data set [2], the IC50 was found to be 26 ± 2.24 µM and the “inhibitory activity against A2780 cell lines (in words)” value (from here on “inhibitory activity”) was “a little inhibitory activity”.
`O=C1Nc2ccccc2C1=NN=Cc1ccccc1Br` [Compound 4e, 3-((2-Bromobenzylidene)hydrazono)indolin-2-one] had a melting point of 233 to 234 °C. Moreover, the midpoint of inhibition in data set [1], the IC50, lay at 5.46 ± 0.71 µM. Besides, in data set [2], the IC50 is 19 ± 2.52 µM and the “inhibitory activity” value is on record as “a little inhibitory activity”.
Compound `COc1ccc(C=NN=C2C(=O)Nc3ccccc32)c(O)c1` [Compound 4i, 3-((2-Hydroxy-4-methoxybenzylidene)hydrazono)indolin-2-one] had a melting point of 242 to 243 °C. Besides, the IC50 in data set [1] was found to be 7.77 ± 0.008 µM. Also, the IC50 in data set [2] is more than 50 µM.
For `CSc1ccc(C=NN=C2C(=O)Nc3ccccc32)cc1` [Compound 4d, 3-((4-(Methylthio)benzylidene)hydrazono)indolin-2-one], in that order: 204 to 205 °C, 24 ± 2.61 µM and more than 50 µM.
For `Cc1ccc(C=NN=C2C(=O)Nc3ccccc32)cc1` [Compound 4c, 3-((4-Methylbenzylidene)hydrazono)indolin-2-one], in that order: 230 to 231 °C, 32.5 ± 0.52 µM and more than 50 µM.
For `COc1cc(C)c(C=NN=C2C(=O)Nc3ccccc32)c(C)c1` [Compound 4h, 3-((4-Methoxy-2,6-dimethylbenzylidene)hydrazono)indolin-2-one] the same measures were 251 to 252 °C, 25.78 ± 0.13 µM and more than 50 µM.
For `O=C1Nc2ccccc2C1=NN=Cc1ccc(Br)cc1` [Compound 4g, 3-((4-Bromobenzylidene)hydrazono)indolin-2-one], the melting point lay in the range of 267 to 268 °C. Half-maximal inhibition in data set [1] (IC50) was put at 15.7 ± 0.78 µM. This compound also came in with an IC50 in data set [2] of more than 50 µM.
For `Cc1ccccc1C=NN=C1C(=O)Nc2ccccc21` [Compound 4a, 3-((2-Methylbenzylidene)hydrazono)indolin-2-one] the same measures were 198 to 199 °C, 10.82 ± 0.05 µM and more than 50 µM.
`O=C1Nc2ccccc2C1=NN=Cc1cccc(Br)c1` [Compound 4f, 3-((3-Bromobenzylidene)hydrazono)indolin-2-one] returned a melting point of 182 to 183 °C. This compound came in with an IC50 in data set [1] of 9.07 ± 0.59 µM. In addition, in data set [2], it took 25 ± 2.82 µM to reach half-maximal inhibition (IC50) and the “inhibitory activity” value is listed as “a little inhibitory activity”.
As for `COc1cccc2c1C(=O)c1c(O)c3c(c(O)c1C2=O)C[C@@](O)(C(=O)CO)C[C@@H]3O[C@H]1C[C@H](N)[C@H](O)[C@H](C)O1` [Doxorubicin, reference compound], the IC50 in data set [1] amounted to 3.1 ± 0.29 µM; in data set [2], 0.2 ± 0.03 µM.
In the case of `O=C1Nc2ccccc2C1=NN=Cc1c(F)cccc1Cl` [Compound 4k, 3-((2-Chloro-6-fluorobenzylidene)hydrazono)indolin-2-one], the IC50 was 0.3 µM and 0.301 µM in data set [3]; 3.56 ± 0.31 µM in data set [1]; 27 ± 3.2 µM in data set [2]. Further, the “inhibitory activity” value in data set [2] is “a little inhibitory activity”.

The values above are taken from PMC7582667, “A Series of Isatin-Hydrazones with Cytotoxic Activity and CDK2 Kinase Inhibitory Activity: A Potential Type II ATP Competitive Inhibitor” (Molecules, 2020).
